In ChEMBL document CHEMBL3885861, “Open TG-GATES”:

Species: Rattus norvegicus
Experiment: Open TG-GATES - Regimen: Single
Assay type: toxicity, organism-based, Sprague-Dawley
Design: regimen Single, gender Male, age 6 weeks
Settings: in vivo, iv, 6 mg/kg, route intravenous injection, dose level Low; for APTT / Bas / Eos / Fbg / Hb / Ht / Lym / MCH / MCHC / MCV / Mono / Neu / PT / Plat / RBC / Ret / WBC: tissue Blood; for KIDNEY_L / KIDNEY_R / KIDNEY_TOTAL: tissue Kidney; for LIVER: tissue Liver; for A/G / ALP / ALT / AST / BUN / CRE / Ca / Cl / DBIL / GLC / IP / K / LDH / Na / PL / RALB / TBIL / TC / TG / TP / gamma-GTP: tissue Plasma

NCCBr [BROMOETHANAMINE]
TERMINAL_BW (3 h): 221.9 g
APTT (3 h): 22.5 s
Bas (3 h): 0%
Eos (3 h): 0.4%
Fbg (3 h): 300 mg/dL
Hb (3 h): 13.3 g/dL
Ht (3 h): 39.3%
Lym (3 h): 77.8%
MCH (3 h): 21.5 pg
MCHC (3 h): 33.8%
MCV (3 h): 63.5 fL
Mono (3 h): 3%
Neu (3 h): 18%
PT (3 h): 16 s
Plat (3 h): 125.4 x10_4/uL
RBC (3 h): 618.4 x10_4/ul
Ret (3 h): 6.4%
WBC (3 h): 83.3 x10_2/uL
KIDNEY_L (3 h): 1 g
KIDNEY_R (3 h): 1 g
KIDNEY_TOTAL (3 h): 2 g
LIVER (3 h): 10.5 g
A/G (3 h): 1.2
ALP (3 h): 1604 IU/L
ALT (3 h): 44.6 IU/L
AST (3 h): 78 IU/L
BUN (3 h): 14.4 mg/dL
CRE (3 h): 0.2 mg/dL
Ca (3 h): 10.8 mg/dL
Cl (3 h): 106.2 meq/L
DBIL (3 h): 0 mg/dL
GLC (3 h): 167.8 mg/dL
IP (3 h): 7.9 mg/dL
K (3 h): 4.4 meq/L
LDH (3 h): 187.8 IU/L
Na (3 h): 142 meq/L
PL (3 h): 140.8 mg/dL
RALB (3 h): 3 g/dL
TBIL (3 h): 0.02 mg/dL
TC (3 h): 76.8 mg/dL
TG (3 h): 101 mg/dL
TP (3 h): 5.4 g/dL
gamma-GTP (3 h): 2 IU/L
TERMINAL_BW (6 h): 218.1 g
APTT (6 h): 23.7 s
Bas (6 h): 0%
Eos (6 h): 0.6%
Fbg (6 h): 311 mg/dL
Hb (6 h): 13.3 g/dL
Ht (6 h): 39.1%
Lym (6 h): 83%
MCH (6 h): 21.1 pg
MCHC (6 h): 34.1%
MCV (6 h): 61.9 fL
Mono (6 h): 2.6%
Neu (6 h): 12.6%
PT (6 h): 16.2 s
Plat (6 h): 118.5 x10_4/uL
RBC (6 h): 632.6 x10_4/ul
Ret (6 h): 6.5%
WBC (6 h): 95.2 x10_2/uL
KIDNEY_L (6 h): 1 g
KIDNEY_R (6 h): 1 g
KIDNEY_TOTAL (6 h): 2 g
LIVER (6 h): 9.3 g
A/G (6 h): 1.1
ALP (6 h): 1385.2 IU/L
ALT (6 h): 39 IU/L
AST (6 h): 71.4 IU/L
BUN (6 h): 10.6 mg/dL
CRE (6 h): 0.1 mg/dL
Ca (6 h): 10.5 mg/dL
Cl (6 h): 105.8 meq/L
DBIL (6 h): 0 mg/dL
GLC (6 h): 178.8 mg/dL
IP (6 h): 8.9 mg/dL
K (6 h): 4.4 meq/L
LDH (6 h): 147 IU/L
Na (6 h): 140.8 meq/L
PL (6 h): 128.8 mg/dL
RALB (6 h): 2.8 g/dL
TBIL (6 h): 0.02 mg/dL
TC (6 h): 74.4 mg/dL
TG (6 h): 49.2 mg/dL
TP (6 h): 5.4 g/dL
gamma-GTP (6 h): 2 IU/L
TERMINAL_BW (9 h): 207.3 g
APTT (9 h): 22.3 s
Bas (9 h): 0%
Eos (9 h): 0.6%
Fbg (9 h): 297 mg/dL
Hb (9 h): 13.4 g/dL
Ht (9 h): 38.5%
Lym (9 h): 80.4%
MCH (9 h): 21.4 pg
MCHC (9 h): 34.7%
MCV (9 h): 61.8 fL
Mono (9 h): 2.2%
Neu (9 h): 16.2%
PT (9 h): 16.3 s
Plat (9 h): 110.5 x10_4/uL
RBC (9 h): 623.6 x10_4/ul
Ret (9 h): 5.4%
WBC (9 h): 73.1 x10_2/uL
KIDNEY_L (9 h): 0.9 g
KIDNEY_R (9 h): 0.9 g
KIDNEY_TOTAL (9 h): 1.8 g
LIVER (9 h): 8 g
A/G (9 h): 1.2
ALP (9 h): 1508.8 IU/L
ALT (9 h): 34 IU/L
AST (9 h): 70 IU/L
BUN (9 h): 12.8 mg/dL
CRE (9 h): 0.2 mg/dL
Ca (9 h): 10.5 mg/dL
Cl (9 h): 106.2 meq/L
DBIL (9 h): 0 mg/dL
GLC (9 h): 174 mg/dL
IP (9 h): 9.1 mg/dL
K (9 h): 4.3 meq/L
LDH (9 h): 129 IU/L
Na (9 h): 141.2 meq/L
PL (9 h): 121.8 mg/dL
RALB (9 h): 2.9 g/dL
TBIL (9 h): 0.018 mg/dL
TC (9 h): 71.6 mg/dL
TG (9 h): 48.4 mg/dL
TP (9 h): 5.4 g/dL
gamma-GTP (9 h): 1.4 IU/L
TERMINAL_BW (24 h): 221.5 g
APTT (24 h): 23.6 s
Bas (24 h): 0%
Eos (24 h): 0.8%
Fbg (24 h): 322.8 mg/dL
Hb (24 h): 14 g/dL
Ht (24 h): 40.5%
Lym (24 h): 79.8%
MCH (24 h): 21 pg
MCHC (24 h): 34.6%
MCV (24 h): 60.7 fL
Mono (24 h): 2.8%
Neu (24 h): 15.6%
PT (24 h): 16.4 s
Plat (24 h): 121.7 x10_4/uL
RBC (24 h): 666.6 x10_4/ul
Ret (24 h): 5.5%
WBC (24 h): 96.1 x10_2/uL
KIDNEY_L (24 h): 1 g
KIDNEY_R (24 h): 1.1 g
KIDNEY_TOTAL (24 h): 2.1 g
LIVER (24 h): 10.8 g
A/G (24 h): 1.1
ALP (24 h): 1490 IU/L
ALT (24 h): 44.6 IU/L
AST (24 h): 67.6 IU/L
BUN (24 h): 18 mg/dL
CRE (24 h): 0.2 mg/dL
Ca (24 h): 10.7 mg/dL
Cl (24 h): 105.8 meq/L
DBIL (24 h): 0 mg/dL
GLC (24 h): 183.6 mg/dL
IP (24 h): 6.8 mg/dL
K (24 h): 4.6 meq/L
LDH (24 h): 187.8 IU/L
Na (24 h): 141.6 meq/L
PL (24 h): 162.8 mg/dL
RALB (24 h): 2.9 g/dL
TBIL (24 h): 0.01 mg/dL
TC (24 h): 90.8 mg/dL
TG (24 h): 99.4 mg/dL
TP (24 h): 5.6 g/dL
gamma-GTP (24 h): 1.8 IU/L
